Experimental data published in US10869846B2, “N-acetylcysteine amide (NAC amide) in the treatment of diseases and conditions associated with oxidative stress” (SENTIENT LIFESCIENCES, INC., priority 2005, dated 2020).

Test system: PC12 cells
Test: Cysteine levels in cells
Type: cell-based
Conditions: NAC amide 750 μM, glutamate 10 mM, 24 h (FIG. 5)
Procedure: Cells were plated and grown for 24 hours, and then they were exposed to glutamate (10 mM) in the presence or absence of NAC amide (750 μM). Twenty-four hours later, the cells were harvested and cysteine levels were measured. Values represent means±SD. Statistically different values of *P<0.005 and **P<0.05 were determined, compared to control. ***P<0.05 compared to glutamate-treated group.
GSH measurement: Cellular levels of GSH were determined by using the method as described in Winters R. A. et al., Anal Biochem., 227(1):14-21, 1995. Cells were seeded at a density of 80,000 cells/cm^2 on poly-D-lysine coated (0.05 mg/ml) 75 cm^2 flasks (5 ml/flask) for GSH measurement. After 24 hours, the flasks were incubated with fresh medium containing glutamate (10 mM), or BSO (0.2 mM) or Glu+BSO+NAC amide (750 μM) at […] for another 24 h. After the incubation period, cells were removed from the cultures and homogenized in serine borate buffer (100 mM Tris-HCl, 10 mM boric acid, 5 mM L-serine, 1 mM DETAPAC, pH 7.4). Twenty (20) μl of the diluted cell homogenate were added to 230 μl of serine borate buffer and 750 μl of NPM (1 mM in acetonitrile). The resulting solutions were incubated at room temperature for 5 min. The reaction was stopped by the addition of 5 μl of 2N HCl. The samples were then filtered through a 0.2 μm Acrodisc filter and injected onto the HPLC system.

## N-acetylcysteine amide [NAC amide]
  cysteine levels compared to the control group: increase
